Legend:
mPTP = mPTP activity (Ca2+ retention) assay in isolated rat liver mitochondria; assay type: biochemical; conditions: isolated rat liver mitochondria; average value from multiple experiments (n ≥ 2)
Text: Pharmacological inhibition or modulation of the mPTP can be measured in well characterised ‘Ca^2+ retention’ assays performed in isolated mitochondria. In vitro isolated mitochondria rapidly sequester exogenous Ca^2+ until the intramitochondrial Ca^2+ concentration reaches the threshold for mPTP activation. Once the pore is activated, mitochondrial integrity is compromised and the stored Ca^2+ is released. The distribution of Ca^2+ between extra- and intra-mitochondrial compartments can be measured in real time with the use of membrane-impermeant Ca^2+ sensitive fluorescent dyes. Depending on the configuration of the assay, inhibition or modulation of the mPTP either delays the opening of the pore or increases the concentration of Ca^2+ required to induce mPTP opening.
MPTP activity was measured in mitochondria freshly isolated from female Sprague Dawley (250 to 300 gram) rat livers using the following method. Cervical dislocation was performed on the rat. The liver was then perfused in-situ with ˜40 ml cold Dulbecco's Phosphate Buffered Saline (DPBS) prior to dissection and transferred into 30 ml Isolation Buffer (250 mM Sucrose, 10 mM KCl, 1 mM EGTA, 1 mM EDTA, 25 mM HEPES, adjusted to pH 7.5 with 1 M NaOH). Each lobe of the liver was then removed from the buffer, minced using tweezers and a scalpel into ˜5 mm pieces then transferred into a 50 ml Potterton dounce homogenization tube on ice containing 30 ml ice-cold centrifugation buffer (300 mM Trehalose, 25 mM HEPES, 1 mM EGTA, 1 mM EDTA, 10 mM KCl, adjusted to pH 7.5 with 1 M NaOH and supplemented with 0.1% bovine serum albumin (BSA) and complete protease inhibitor cocktail (one tablet of inhibitor per 50 mls of buffer). Homogenisation was carried out using a teflon pestle at 1800 rpm. The slurry was centrifuged at 800 g for 10 min at 4° C., then the supernatant centrifuged at 10,000 g for 10 min. The pellet was washed once with FLIPR assay buffer (75 mM Mannitol, 25 mM Sucrose, 5 mM Potassium Phosphate Monobasic, 20 mM Tris base, 100 mM KCl, 0.1% BSA adjusted to pH 7.4 with 5M HCl) centrifuged again, then resuspended in FLIPR assay buffer to a concentration of 8.8 mg/ml protein.
Tested compounds (10 mM stock in DMSO) were serially diluted in DMSO in half log steps to generate 10 test concentrations (final concentrations in assay 30 μM to 1 nM). An intermediate dilution of 5 μl DMSO samples into 247 μl FLIPR assay buffer was carried out prior to transfer of 5 μl into duplicate wells of a 384 well polypropylene assay plate. Control wells were 0.5% (v/v) DMSO and 5 μM cyclosporin A.
A stock mitochondria/Fluo5N assay solution was prepared in 5.6 ml FLIPR assay buffer (at RT) supplemented with succinate disodium salt (10 mM), rotenone (1 μM), Fluo5N pentapotassium salt (2 μM) and 1 ml mitochondria suspension, then transferred (15 μl) into the assay plate containing test compounds and incubated for 10 min at RT. Assay plates were then transferred to a FLIPR Tetra plate reader (Molecular Devices). Dye fluorescence was then measured every 3 sec for a total of 10 min. After 12 sec, a 2.5 μl bolus of CaCl2 (75 μM) was added from a source plate containing 675 μM CaCl2 in FLIPR assay buffer. IC50 values for tested compounds were calculated using the fluorescence value collected at the 10 min timepoint with % inhibition calculated using the DMSO control and cyclosporin A values as […] respectively.

CYP2D6 = CYP2D6 (Homo sapiens (Human), UniProt P10635); experiment: Cytochrome P450 CYP2D6 inhibition in human liver microsomes; assay type: in vitro ADME; conditions: probe dextromethorphan 2 µM (dextrorphan formation); 1 uM test compound, human liver microsomes; average value from two experiments; negative values = no effective inhibition
Protocol: Studies to assess tested compound mediated inhibition of cytochrome P450 enzyme isoform CYP2D6 were performed using human liver microsomes (BD Gentest) using either a single concentration (1 μM) of test compound or concentration response (0.1, 0.3, 1, 3, 10 and 30 μM) to derive an IC50. Tested compound solutions were prepared from 10 mM stocks in DMSO and diluted to 200 μM in DMSO. Reactions were prepared in a 96 deep well plate by combining 1 μl test compound with 179 μl reaction mixture (100 mM phosphate buffered saline (PBS), 0.2 mg/mL microsomes and 2 μM Dextromethorphan prepared from stocks as detailed below).
The positive control inhibitor, quinidine, was used at a final concentration of 0.5 μM when used at a single concentration. The final concentrations of quinidine used to derive an IC50 were 0, 0.1, 0.3, 1, 3, 10 and 30 μM. Plates were warmed at 37° C. for 15 min before starting reactions with 20 μl 10 mM NADPH solution in PBS and incubated for 20 min at 37° C. The assay is performed in duplicate. Reactions were quenched with 200 μl cold acetonitrile containing internal standards (200 nM labetalol, 200 nM alprazolam and 100 nM tolbutamide). The plate was centrifuged at 4000 rpm for 30 minutes, placed on ice for 20 minutes and then centrifuged at 4000 rpm for 30 minutes again to precipitate protein. 100 μL of the supernatant was transferred to a new plate and diluted with 100 μL pure water before being analysed using UPLC/MS/MS. The products of the transformation for dextromethorphan to dextrorphan was monitored by UPLC-MS/MS. The inhibition of CYP2D6 in human liver microsomes was measured as the percentage decrease in the activity of dextrorphan formation compared to non-inhibited controls (=100% activity). The IC50 value was calculated (test compound concentration which produces 50% inhibition) by using Excel Xlfit.

CYP2D6, sequence (P10635 whole entry, canonical isoform): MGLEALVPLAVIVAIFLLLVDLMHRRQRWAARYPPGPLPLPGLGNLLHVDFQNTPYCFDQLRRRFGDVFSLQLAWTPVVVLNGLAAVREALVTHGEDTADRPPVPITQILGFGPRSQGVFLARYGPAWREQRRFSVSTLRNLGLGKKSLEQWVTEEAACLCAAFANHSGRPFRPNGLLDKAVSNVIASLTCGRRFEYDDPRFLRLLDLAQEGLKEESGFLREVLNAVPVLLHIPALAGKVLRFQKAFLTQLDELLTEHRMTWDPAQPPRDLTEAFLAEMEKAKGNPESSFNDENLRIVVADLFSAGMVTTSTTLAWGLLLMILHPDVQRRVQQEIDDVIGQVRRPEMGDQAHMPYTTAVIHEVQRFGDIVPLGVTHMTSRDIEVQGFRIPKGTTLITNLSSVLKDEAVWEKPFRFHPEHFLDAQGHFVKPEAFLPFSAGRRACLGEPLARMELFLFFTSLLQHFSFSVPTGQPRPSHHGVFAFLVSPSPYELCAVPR

Row | Compound | mPTP Rat liver pIC50 (mPTP) | inhibition at 20 min, 1 µM (CYP2D6)
1 | Cc1n[nH]c2cc(/C=C/C(=O)N[C@@H]3CCCC[C@H]3C)ccc12 [Example 43, (E)-3-(3-methyl-1H-indazol-6-yl)-N-((1R,2R)-2-methylcyclohexyl)acrylamide] | 6.3 | –
2 | Cc1n[nH]c2cc(/C=C/C(=O)N[C@@H]3CCc4ccccc43)ccc12 [Example 55, (E)-N-(2,3-dihydro-1H-inden-1-yl)-3-(3-methyl-1H-indazol-6-yl)acrylamide] | 7.1 | –
3 | Cc1n[nH]c2cc(/C=C/C(=O)NC3c4ccccc4CCC3C)ccc12 (stereo not drawn) [Example 53, (E)-N-(2-methyl-1,2,3,4-tetrahydronaphthalen-1-yl)-3-(3-methyl-1H-indazol-6-yl)acrylamide] | 6.7 | –
4 | CC1CCCCC1NC(=O)/C=C/c1ccc2c(c1)NC(=O)C2 (stereo not drawn) [Example 64, (E)-N-(2-methylcyclohexyl)-3-(2-oxoindolin-6-yl)acrylamide] | 4.9 | –
5 | Cc1c(Cl)cccc1N(C)C(=O)/C=C/c1ccc2oc(=O)[nH]c2c1 [Example 48, (E)-N-(3-chloro-2-methylphenyl)-N-methyl-3-(2-oxo-2,3-dihydrobenzo[d]oxazol-5-yl)acrylamide] | 5.9 | 6.34%
6 | Cc1n[nH]c2cc(/C=C/C(=O)NC3CCc4ccccc43)cc(F)c12 (stereo not drawn) [Example 34, (E)-N-(2,3-dihydro-1H-inden-1-yl)-3-(4-fluoro-3-methyl-1H-indazol-6-yl)acrylamide] | 6.7 | 4.37%
7 | CC1Cc2ccccc2C1NC(=O)/C=C/c1ccc2c(C#N)n[nH]c2c1 (stereo not drawn) [Example 44, (E)-3-(3-cyano-1H-indazol-6-yl)-N-(2-methyl-2,3-dihydro-1H-inden-1-yl)acrylamide] | 7.1 | 8.94%
8 | O=C(/C=C/c1ccc2c(c1)NC(=O)C2)NC1CCc2ccccc21 (stereo not drawn) [Example 59, (E)-N-(2,3-dihydro-1H-inden-1-yl)-3-(2-oxoindolin-6-yl)acrylamide] | 5.5 | –
9 | CC1Cc2ccccc2C1NC(=O)/C=C/c1ccc2oc(=O)[nH]c2c1 (stereo not drawn) [Example 46, (E)-N-(2-methyl-2,3-dihydro-1H-inden-1-yl)-3-(2-oxo-2,3-dihydrobenzo[d]oxazol-5-yl)acrylamide] | 6.3 | –
10 | Cc1n[nH]c2cc(/C=C/C(=O)NC3CCc4cc(F)ccc43)ccc12 (stereo not drawn) [Example 40, (E)-N-(5-fluoro-2,3-dihydro-1H-inden-1-yl)-3-(3-methyl-1H-indazol-6-yl)acrylamide] | 6.6 | 6.65%
11 | CC1Cc2ccccc2C1NC(=O)/C=C/c1ccc2c(c1)[nH]c(=O)n2C (stereo not drawn) [Example 45, (E)-N-(2-methyl-2,3-dihydro-1H-inden-1-yl)-3-(1-methyl-2-oxo-2,3-dihydro-1H-benzo[d]imidazol-5-yl)acrylamide] | 6.3 | –
12 | Cn1c(=O)[nH]c2cc(/C=C/C(=O)NC3CCc4ccccc43)ccc21 (stereo not drawn) [Example 24, (E)-N-(2,3-dihydro-1H-inden-1-yl)-3-(1-methyl-2-oxo-2,3-dihydro-1H-benzo[d]imidazol-5-yl)acrylamide] | 6.1 | 0.77%
13 | CCc1n[nH]c2cc(/C=C/C(=O)NC3CCc4ccccc43)ccc12 (stereo not drawn) [Example 32, (E)-N-(2,3-dihydro-1H-inden-1-yl)-3-(3-ethyl-1H-indazol-6-yl)acrylamide] | 6.6 | 4.01%
14 | O=C(/C=C/c1ccc2oc(=O)[nH]c2c1)NC1CCCc2ccccc21 (stereo not drawn) [Example 57, (E)-3-(2-oxo-2,3-dihydrobenzo[d]oxazol-5-yl)-N-(1,2,3,4-tetrahydronaphthalen-1-yl)acrylamide] | 5.8 | –
15 | O=C(/C=C/c1ccc2c(C3CC3)n[nH]c2c1)NC1CCc2ccccc21 (stereo not drawn) [Example 33, (E)-3-(3-cyclopropyl-1H-indazol-6-yl)-N-(2,3-dihydro-1H-inden-1-yl)acrylamide] | 6.3 | -0.55%
16 | Cc1cc(NC(=O)/C=C/c2ccc3c(C)n[nH]c3c2)ccc1F [Example 41, (E)-N-(4-fluoro-3-methylphenyl)-3-(3-methyl-1H-indazol-6-yl)acrylamide] | 7.1 | 1.2%
17 | CC1CCc2ccccc2C1NC(=O)/C=C/c1ccc2c(c1)NC(=O)C2 (stereo not drawn) [Example 58] | 5.5 | –
18 | Cc1ccc(NC(=O)/C=C/c2ccc3c(C)n[nH]c3c2)cc1F [Example 42, (E)-N-(3-fluoro-4-methylphenyl)-3-(3-methyl-1H-indazol-6-yl)acrylamide] | 6.1 | -1.97%
19 | O=C(/C=C/c1ccc2oc(=O)[nH]c2c1)NC1CCc2ccccc21 (stereo not drawn) [Example 11, (E)-N-(2,3-dihydro-1H-inden-1-yl)-3-(2-oxo-2,3-dihydrobenzo[d]oxazol-5-yl)acrylamide] | 6.1 | -0.63%
20 | Cc1n[nH]c2cc(/C=C/C(=O)NC3c4ccccc4OCC3C)ccc12 (stereo not drawn) [Example 52, (E)-3-(3-methyl-1H-indazol-6-yl)-N-(3-methylchroman-4-yl)acrylamide] | 6.9 | –
21 | O=C(/C=C/c1ccc2nn[nH]c2c1F)NC1CCc2ccccc21 (stereo not drawn) [Example 61, (E)-N-(2,3-dihydro-1H-inden-1-yl)-3-(7-fluoro-1H-benzo[d][1,2,3]triazol-6-yl)acrylamide] | 5.6 | –
22 | Cc1c(F)cc(F)cc1NC(=O)/C=C/c1ccc2c(c1)NC(=O)C2 [Example 60, (E)-N-(3,5-difluoro-2-methylphenyl)-3-(2-oxoindolin-6-yl)acrylamide] | 5.7 | –
23 | O=C(/C=C/c1cc(F)c2nn[nH]c2c1)NC1CCc2ccccc21 (stereo not drawn) [Example 62, (E)-N-(2,3-dihydro-1H-inden-1-yl)-3-(4-fluoro-1H-benzo[d][1,2,3]triazol-6-yl)acrylamide] | 5.6 | –
24 | Cc1c(F)cccc1NC(=O)/C=C/c1ccc2sc(=O)[nH]c2c1 [Example 2, (E)-N-(3-fluoro-2-methylphenyl)-3-(2-oxo-2,3-dihydrobenzo[d]thiazol-5-yl)acrylamide] | 6.0 | –
25 | Cc1ccc(Cl)cc1NC(=O)/C=C/c1ccc2oc(=O)[nH]c2c1 [Example 63, (E)-N-(5-chloro-2-methylphenyl)-3-(2-oxo-2,3-dihydrobenzo[d]oxazol-5-yl)acrylamide] | 4.9 | –
26 | O=C(/C=C/c1ccc2oc(=O)[nH]c2c1)NC1CCOc2ccccc21 (stereo not drawn) [Example 56, (E)-N-(chroman-4-yl)-3-(2-oxo-2,3-dihydrobenzo[d]oxazol-5-yl)acrylamide] | 5.8 | –

Source: US20250179028A1, “ACRYLAMIDE COMPOUNDS” (NRG THERAPEUTICS LTD, priority 2022, published 2025)
